The text below walks through data of US9439906B2, “Dosing regimen associated with long acting injectable paliperidone esters” (Janssen Pharmaceutica NV, priority 2007, dated 2016).

This assay concerns the target D2 receptor (Homo sapiens, UniProt P14416). The experiment in a line: PET central D2 occupancy studies SWE-1 and SIV-101. The class given is in vivo. The source says: It has been empirically derived and is currently widely excepted that 65-70% occupancy is needed for antipsychotics to show clinical efficacy (Farde et al.), i.e. improvement on the PANSS scale. A too high occupancy (80-85%) will typically increase the risk to develop EPS. In order to determine the central D2 occupancy, PET trials in human healthy volunteers are typically performed.

Sequence of D2 receptor (P14416 whole entry): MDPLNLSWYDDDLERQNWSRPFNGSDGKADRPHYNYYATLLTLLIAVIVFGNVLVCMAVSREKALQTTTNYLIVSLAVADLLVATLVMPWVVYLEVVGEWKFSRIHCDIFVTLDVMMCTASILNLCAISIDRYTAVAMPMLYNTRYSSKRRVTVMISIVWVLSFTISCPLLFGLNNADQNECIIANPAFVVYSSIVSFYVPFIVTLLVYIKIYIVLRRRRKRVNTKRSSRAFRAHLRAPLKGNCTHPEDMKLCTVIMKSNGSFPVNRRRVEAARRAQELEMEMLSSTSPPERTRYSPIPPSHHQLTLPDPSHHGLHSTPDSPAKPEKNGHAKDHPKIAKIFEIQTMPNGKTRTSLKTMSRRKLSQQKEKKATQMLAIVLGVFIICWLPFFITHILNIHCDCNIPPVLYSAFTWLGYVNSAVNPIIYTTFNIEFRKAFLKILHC

In general, Kd refers to a measure of binding affinity in units of concentration. Higher therefore signals weaker binding. In turn, `Cc1nc2n(c(=O)c1CCN1CCC(c3noc4cc(F)ccc34)CC1)CCCC2O` (centres unmarked) [paliperidone, 9-hydroxy-risperidone] gave a Kd of 10.3 to 15 nM. Besides, under “calculated using the 65-85% D2 occupancy window”, the “exposure range for efficacy without an increased risk to develop EPS (target exposure range)” value is 7.5 to 40 ng/mL.
